Data from paper PMC12752747, “ENT3: A lysosomal urate transporter regulating urate disposition and macrophage inflammation” (iScience, 2025).

T1: ENT3 (equilibrative nucleoside transporter 3), ENT3-AA construct (Homo sapiens, UniProt Q9BZD2, L31A/L32A)
T1 construct: gene SLC29A3; ENT3-AA: full-length ENT3 redirected to the plasma membrane, dileucine L31L32 replaced with A31A32
T1 sequence (Q9BZD2 1-475 L31A/L32A): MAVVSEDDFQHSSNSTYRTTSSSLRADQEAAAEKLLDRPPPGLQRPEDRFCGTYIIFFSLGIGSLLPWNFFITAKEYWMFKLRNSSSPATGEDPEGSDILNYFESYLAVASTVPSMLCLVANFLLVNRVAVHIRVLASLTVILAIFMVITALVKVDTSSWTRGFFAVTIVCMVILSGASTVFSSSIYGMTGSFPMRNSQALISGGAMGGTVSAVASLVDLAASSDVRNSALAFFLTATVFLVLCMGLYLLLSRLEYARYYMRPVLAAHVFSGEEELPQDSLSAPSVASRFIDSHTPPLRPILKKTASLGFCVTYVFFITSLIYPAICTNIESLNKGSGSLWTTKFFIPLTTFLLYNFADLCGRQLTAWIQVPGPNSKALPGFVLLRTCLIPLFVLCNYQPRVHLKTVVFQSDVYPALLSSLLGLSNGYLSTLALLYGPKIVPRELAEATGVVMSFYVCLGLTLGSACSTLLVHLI


Experiments:
[1] = target: T1, ENT3 (equilibrative nucleoside transporter 3), ENT3-AA construct; test: inhibition of […]urate ([…]) uptake in HEK293 cells transiently expressing ENT3-AA, pH […]; type: cell-based
[2] = substrate: O=c1[nH]c(=O)c2[nH]c(=O)[nH]c2[nH]1; test: cells, lysate or membranes; type: cell-based, Homo sapiens; conditions: proton-coupled transport

IC50 [1] | Molecule | Km [2]
7.71 µM | OCCN(CCO)c1nc(N2CCCCC2)c2nc(N(CCO)CCO)nc(N3CCCCC3)c2n1 [dipyridamole] | –
21.7 µM | O=[N+]([O-])c1ccc(CSc2ncnc3c2ncn3C2OC(CO)C(O)C2O)cc1 (stereo not drawn) [nitrobenzylthioinosine] | –
– | ENT3 (equilibrative nucleoside transporter 3), ENT3-AA construct (Homo sapiens; L31A/L32A) (protein, ENT3-AA: full-length ENT3 redirected to the plasma membrane, dileucine L31L32 replaced with A31A32) MAVVSEDDFQHSSNSTYRTTSSSLRADQEAAAEKLLDRPPPGLQRPEDRFCGTYIIFFSLGIGSLLPWNFFITAKEYWMFKLRNSSSPATGEDPEGSDILNYFESYLAVASTVPSMLCLVANFLLVNRVAVHIRVLASLTVILAIFMVITALVKVDTSSWTRGFFAVTIVCMVILSGASTVFSSSIYGMTGSFPMRNSQALISGGAMGGTVSAVASLVDLAASSDVRNSALAFFLTATVFLVLCMGLYLLLSRLEYARYYMRPVLAAHVFSGEEELPQDSLSAPSVASRFIDSHTPPLRPILKKTASLGFCVTYVFFITSLIYPAICTNIESLNKGSGSLWTTKFFIPLTTFLLYNFADLCGRQLTAWIQVPGPNSKALPGFVLLRTCLIPLFVLCNYQPRVHLKTVVFQSDVYPALLSSLLGLSNGYLSTLALLYGPKIVPRELAEATGVVMSFYVCLGLTLGSACSTLLVHLI | 1150 µM
